Test results published in article PMC6272185 (Molecules, 2015).
Values after ≈ are worked out from the molar mass of the structure shown. Structures can show the parent of a compound that is named as a salt. Where two headings read alike, the source gives them in different places.

Columns and labels:
[1] = system: NO production by LPS-stimulated RAW 264.7 macrophages; experiment: Inhibition of NO production by LPS-stimulated macrophages (Griess); assay type: cell-based, murine; conditions: mean ± SD, n = 3
[2] = system: TNF-α production by LPS-stimulated RAW 264.7 macrophages; experiment: Inhibition of TNF-α production by LPS-stimulated macrophages (ELISA); assay type: cell-based, murine; conditions: Mus musculus, read-out: IC50 TNF-α
[3] = Macrophage cytotoxicity, LDH release assay; assay type: cell-based, murine; conditions: mouse, RAW 264.7 macrophages stimulated with LPS; LPS-stimulated RAW 264.7, LDH release; mean ± SD, n = 3
M. bovis BCG = experiment: microbe, parasite or virus in culture; assay type: cell-based, Mycobacterium bovis BCG; conditions: Mycobacterium tuberculosis variant bovis BCG, BCG, 168 h; for MIC50: read-out: MIC50 M. bovis BCG; for MIC90: read-out: MIC90 M. bovis BCG
[4] = system: IL-1β production by LPS-stimulated RAW 264.7 macrophages; experiment: Inhibition of IL-1β production by LPS-stimulated macrophages (ELISA); assay type: cell-based, murine; conditions: Mus musculus, RAW264.7, 24 h, read-out: IC50 IL-1β
Protocol: (§1) Murine RAW 264.7 macrophage cell line (American Type Culture Collection, Manassas, VA, USA), was cultured in Dulbecco’s modified Eagle’s medium (DMEM-F12) supplemented with 10% Fetal Bovine Serum (FBS) and gentamicin (50 µg/mL) in 5% CO2 atmosphere at 37 °C. For experiments, the cells were seeded in 96-well plates (1 × 10^5 cells/well) and incubated for 24 h at 37 °C. For macrophage stimulation, the cell cultures were treated with LPS (1 µg/mL) and incubated for additional 24 h in the presence or absence of the chalcone samples (samples 1–41) that were used at concentrations of 100, 20, 4 and 0.8 µg/mL. In some experiments, a nitric oxide (NO) inhibitor, L-NMMA (20 μg/mL), was used as a positive control of NO inhibition, and a non-steroidal anti-inflammatory drug indomethacin, known to inhibit production of prostaglandins, was used as a positive control of PGE2 inhibition.
(§2) The frozen culture supernatants samples were thawed and immediately analyzed using commercially available enzyme-linked immunosorbent assay (ELISA) kits to measure TNF-α, IL-1β (BD Biosciences) and PGE2 (R&D Systems, Minneapolis, MN, USA), according to the manufacturer’s instructions. Standard curves for each mediator were generated using reference cytokine concentrations supplied by the manufacturer. Nitric oxide (NO) generation was assessed by the Griess method to measure nitrites, which are stable breakdown NO products.

[5] = system: PGE2 production by LPS-stimulated RAW 264.7 macrophages; experiment: Inhibition of PGE2 production by LPS-stimulated macrophages (ELISA); assay type: cell-based, murine; conditions: Mus musculus, RAW264.7, 24 h, read-out: IC50 PGE2
Protocol: as §1, §2

M. tuberculosis H37Rv = experiment: microbe, parasite or virus in culture; assay type: cell-based, Mycobacterium tuberculosis; conditions: Mycobacterium tuberculosis
[6] = LPS (1 µg/mL)-stimulated RAW 264.7, 24 h, read-out: IC50 NO
[7] = Mus musculus, RAW264.7, 24 h, read-out: IC50 NO, LPS (1 µg/mL)-stimulated RAW 264.7, 24 h
[8] = RAW264.7, LPS (1 µg/mL)-stimulated RAW 264.7, 24 h, mean ± SD, n = 3
[9] = Mus musculus, RAW264.7, 24 h, LPS (1 µg/mL)-stimulated RAW 264.7, 24 h, read-out: IC50 NO
[10] = H37RV, 120 h, read-out: MIC50 M. tuberculosis H37Rv
[11] = Table 5, same values as M. tuberculosis H37Rv in Table 3, read-out: MIC50

Work on COc1ccc(C(=O)/C=C/c2ccc3c(c2)OCO3)cc1 [Chalcone 28] yielded an IC50 [1, 6] of 14.9 ± 4.1 µM, an IC50 [1, 7] of under 21 µM and an IC50 [2, 8] of over 354 µM. The IC50 [3] was over 354 µM, the MIC50 (M. bovis BCG) was over 354 µM and the MIC90 (M. bovis BCG) was over 354 µM. The IC50 [4] was over 354 µM and the IC50 [5] was 22.1 ± 0.63 µM.

O=C(/C=C/c1ccc(F)cc1)c1ccccc1Cl [Chalcone 32] showed an IC50 [1, 9] of over 384 µM, an IC50 [2, 8] of over 384 µM and an IC50 [3] of over 384 µM. It also gave an MIC50 (M. bovis BCG) of over 384 µM and an MIC90 (M. bovis BCG) of over 384 µM.

For COc1ccc(/C=C/C(=O)c2ccccc2Cl)cc1OC [Chalcone 36], the IC50 [1, 9] was 188 ± 4.1 µM, the IC50 [2, 8] was over 330 µM and the IC50 [3] was over 330 µM. For the same molecule, the MIC50 (M. bovis BCG) was 270 ± 3.9 µM (≈ 81.6 µg/mL) and the MIC90 (M. bovis BCG) was over 330 µM.

Molecule Cc1ccc(C(=O)/C=C/c2ccc(F)cc2)cc1 [Chalcone 17] has an IC50 [1, 9] of 30.8 ± 4.5 µM, an IC50 [2, 8] of over 416 µM and an IC50 [3] of 290 ± 4.3 µM. The MIC50 (M. bovis BCG) was 61.5 ± 7.6 µM (≈ 14.8 µg/mL), the MIC90 (M. bovis BCG) was 388 ± 7.3 µM (≈ 93.3 µg/mL) and the IC50 [4] was over 416 µM. The IC50 [5] was over 417 µM, the MIC90 (M. tuberculosis H37Rv; H37RV, 120 h) was over 416 µM and the MIC50 (M. tuberculosis H37Rv; [10]) was 63.8 ± 6.2 µM (≈ 15.3 µg/mL). It also gave an MIC50 (M. tuberculosis H37Rv; [11]) of 63.8 ± 6.2 µM (≈ 15.3 µg/mL).

O=C(/C=C/c1ccccc1)c1ccccc1 [Chalcone 1, 1,3-diphenyl-2-propenone, reference compound] showed an IC50 [1, 9] of 41.6 ± 2 µM, an IC50 [2, 8] of over 480 µM and an IC50 [3] of 177 ± 9.5 µM. The MIC50 (M. bovis BCG) was 137 ± 4.7 µM (≈ 28.6 µg/mL) and the MIC90 (M. bovis BCG) was 383 ± 9.1 µM (≈ 79.8 µg/mL).

In the case of O=C(/C=C/c1ccccn1)c1ccccc1 [Chalcone 7], the IC50 [1, 9] is reported as over 478 µM, the IC50 [2, 8] is reported as over 478 µM and the IC50 [3] is reported as over 478 µM. For the same molecule, the MIC50 (M. bovis BCG) was 35.8 ± 7.2 µM (≈ 7.49 µg/mL), the MIC90 (M. bovis BCG) was 441 ± 9.5 µM (≈ 92.2 µg/mL) and the MIC90 (M. tuberculosis H37Rv; H37RV, 120 h) was over 478 µM. It also gave an MIC50 (M. tuberculosis H37Rv; [10]) of over 478 µM.

In the case of COc1ccc(C(=O)/C=C/c2ccc([N+](=O)[O-])cc2)cc1 [Chalcone 40], the IC50 [1, 6] is reported as 13.5 ± 5.5 µM, the IC50 [1, 7] is reported as under 21 µM and the IC50 [2, 8] is reported as over 353 µM. It also gave an IC50 [3] of over 353 µM, an MIC50 (M. bovis BCG) of 14.5 ± 3.1 µM (≈ 4.11 µg/mL) and an MIC90 (M. bovis BCG) of over 353 µM. It also gave an IC50 [4] of over 353 µM, an IC50 [5] of over 413 µM and an MIC90 (M. tuberculosis H37Rv; H37RV, 120 h) of 352 ± 5.9 µM (≈ 99.7 µg/mL). The MIC50 (M. tuberculosis H37Rv; [10]) was 131.7 ± 1.3 µM (≈ 37.3 µg/mL) and the MIC50 (M. tuberculosis H37Rv; [11]) was 131.7 ± 1.3 µM (≈ 37.3 µg/mL).

COc1ccc(/C=C/C(=O)c2ccccc2)cc1 [Chalcone 6] gave an IC50 [1, 7] of over 420 µM, an IC50 ([2]; RAW264.7, 24 h) of over 420 µM and an IC50 [3] of over 420 µM.

Cc1ccc(C(=O)/C=C/c2ccccc2)cc1 [Chalcone 16] gave an IC50 [1, 9] of over 450 µM, an IC50 [2, 8] of over 450 µM and an IC50 [3] of over 450 µM. The MIC50 (M. bovis BCG) was over 450 µM and the MIC90 (M. bovis BCG) was over 450 µM.

In the case of Cc1ccc(C(=O)/C=C/c2ccc(N(C)C)cc2)cc1 [Chalcone 19], the IC50 [1, 9] is reported as 27.8 ± 3.8 µM, the IC50 [2, 8] is reported as over 377 µM and the IC50 [3] is reported as over 377 µM. For the same molecule, the MIC50 (M. bovis BCG) was 56.4 ± 4.4 µM (≈ 15 µg/mL), the MIC90 (M. bovis BCG) was 322.7 ± 1.7 µM (≈ 85.6 µg/mL) and the IC50 [4] was over 377 µM. The IC50 [5] was over 377 µM, the MIC90 (M. tuberculosis H37Rv; H37RV, 120 h) was over 377 µM and the MIC50 (M. tuberculosis H37Rv; [10]) was 112 ± 6.4 µM (≈ 29.8 µg/mL). For the same molecule, the MIC50 (M. tuberculosis H37Rv; [11]) was 112 ± 6.4 µM (≈ 29.8 µg/mL).

With [H]/N=C(/NC)NCCC[C@H](N)C(=O)O [L-NMMA, N^G-Monomethyl-L-arginine acetate salt, reference compound] the IC50 [1, 9] was 78.3 ± 6.5 µM.

Molecule COc1ccc(/C=C/C(=O)c2ccc(C)cc2)cc1OC [Chalcone 22] has an IC50 [1, 9] of over 354 µM, an IC50 [2, 8] of over 354 µM and an IC50 [3] of over 354 µM. For the same molecule, the MIC50 (M. bovis BCG) was over 354 µM and the MIC90 (M. bovis BCG) was over 354 µM.

Work on O=C(/C=C/c1ccc2c(c1)OCO2)c1ccc(Br)cc1 [Chalcone 12] yielded an IC50 [1, 6] of 19.6 ± 3.3 µM, an IC50 [1, 7] of under 21 µM and an IC50 [2, 8] of over 302 µM. It also gave an IC50 [3] of over 302 µM, an MIC50 (M. bovis BCG) of 84.9 ± 4.7 µM (≈ 28.1 µg/mL) and an MIC90 (M. bovis BCG) of 229.6 ± 2.2 µM (≈ 76 µg/mL). For the same molecule, the IC50 [4] was over 302 µM and the IC50 [5] was 50.3 ± 0.3 µM.

Work on COc1ccc(/C=C/C(=O)c2ccc(Br)cc2)cc1 [Chalcone 13] yielded an IC50 [1, 9] of 52.9 ± 3.6 µM, an IC50 [2, 8] of over 315 µM and an IC50 [3] of over 315 µM. The MIC50 (M. bovis BCG) was 221 ± 3.6 µM (≈ 70 µg/mL) and the MIC90 (M. bovis BCG) was over 315 µM.

Cc1ccc(C(=O)/C=C/c2ccc([N+](=O)[O-])cc2)cc1 [Chalcone 39] showed an IC50 [1, 9] of 114 ± 4.8 µM, an IC50 [2, 8] of over 373 µM and an IC50 [3] of 329 ± 3.9 µM. It also gave an MIC50 (M. bovis BCG) of 28.1 ± 5.4 µM (≈ 7.51 µg/mL), an MIC90 (M. bovis BCG) of 344 ± 6.3 µM (≈ 92 µg/mL) and an MIC90 (M. tuberculosis H37Rv; H37RV, 120 h) of over 373 µM. It also gave an MIC50 (M. tuberculosis H37Rv; [10]) of over 373 µM.
